Calls of active or inactive are those of the source.
Tests used:
[1] = growth suppression of PTEN-null colon cells, dose response, cell-based, HCT116 PTEN knockout (AID 1047); format: functional;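 further: HCT116 colon tumor cells with PTEN knocked out; cells exposed to compound for 60 hours before readout; potency for loss of cell viability measured by luminescence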
[2] = growth suppression of beta-catenin-knockout colon cells, dose response, cell-based, HCT116, human colon tumor (AID 1045); format: functional;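 further: HCT116 colon tumor cells with beta catenin knocked out; cells exposed to compound for 60 hours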
[3] = molecular target: T1, Calpain-2 catalytic subunit (Sus scrofa, UniProt P43367); test: pig calpain II inhibitor potency, dose response, biochemical, fluorogenic peptide substrate (AID 1420); format: functional
T1 sequence (P43367 whole entry): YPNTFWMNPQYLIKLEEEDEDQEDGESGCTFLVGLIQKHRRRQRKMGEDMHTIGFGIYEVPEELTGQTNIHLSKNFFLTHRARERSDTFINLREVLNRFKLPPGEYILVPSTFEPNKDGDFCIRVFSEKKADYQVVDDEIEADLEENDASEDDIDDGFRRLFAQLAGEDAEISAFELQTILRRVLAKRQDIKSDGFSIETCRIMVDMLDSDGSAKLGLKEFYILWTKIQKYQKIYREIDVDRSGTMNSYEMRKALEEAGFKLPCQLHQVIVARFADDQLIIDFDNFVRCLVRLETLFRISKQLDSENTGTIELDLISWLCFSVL

[4] = molecular target: T2, Heat shock factor protein 1 (Mus musculus, UniProt P38532); test: inhibition of MG132-induced HSE-luciferase signal, confirmation, cell-based, NIH3T3, luminescence, dose retest (AID 2382); format: functional;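 further: NIH3T3 fibroblasts with HSF1-driven luciferase reporter stressed by proteasome inhibitor MG132; luminescence from HSF1-driven luciferase expression after 8 hours of MG132 stress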
T2 sequence (P38532 whole entry): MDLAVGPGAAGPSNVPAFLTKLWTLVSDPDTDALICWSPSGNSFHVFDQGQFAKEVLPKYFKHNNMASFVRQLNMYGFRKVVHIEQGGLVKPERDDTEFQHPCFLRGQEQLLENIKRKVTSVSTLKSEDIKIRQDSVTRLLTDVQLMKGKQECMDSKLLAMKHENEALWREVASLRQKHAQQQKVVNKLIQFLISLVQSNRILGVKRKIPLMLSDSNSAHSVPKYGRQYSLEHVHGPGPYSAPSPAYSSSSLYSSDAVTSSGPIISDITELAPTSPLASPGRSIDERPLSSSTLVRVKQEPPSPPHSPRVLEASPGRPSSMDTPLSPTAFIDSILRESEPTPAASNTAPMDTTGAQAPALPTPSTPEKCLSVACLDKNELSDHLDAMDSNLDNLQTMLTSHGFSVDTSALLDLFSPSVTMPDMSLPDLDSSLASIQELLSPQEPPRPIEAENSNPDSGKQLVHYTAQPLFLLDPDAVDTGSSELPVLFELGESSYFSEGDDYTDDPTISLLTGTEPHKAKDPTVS

[5] = HepG2 cell cytotoxicity, dose response, cytotoxicity control for Shn3 inhibitor project, CellTiter-Glo, cherry-picked (AID 624134); format: functional, cell-based
[6] = control 3'UTR Renilla luciferase suppression, dose response, counter-screen for Shn3 inhibitor project, cell-based, Clone20-Shn3RL, cherry-picked (AID 624133); format: functional
[7] = Shn3 3'UTR reporter inhibitors, dose response, cell-based, Clone20 osteoblasts, firefly luciferase, cherry-picked (AID 624132); format: functional;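 further: firefly luciferase luminescence from reporter carrying the Shn3 3'UTR in osteoblasts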
Prothrombin = Prothrombin (Homo sapiens, UniProt P00734); test: Thrombin 1536 HTS Dose Response Confirmation. [Related pubchem assays: 1046 (Thrombin 1536 HTS; hits were confirmed in this assay)]; format: functional
Nonstructural protein 1 = Nonstructural protein 1 (Influenza A virus, UniProt Q194T2); format: functional, Influenza A virus (A/California/07/2009(H1N1))
cells [8] = format: functional, cell-based
INS1 = test: beta cell apoptosis inhibitors, cytokine rescue, dose response, luminescence, retest (AID 449756); format: functional, cell-based; conditions: Rattus norvegicus;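 further: cell death triggered by IL-1 beta plus TNF-alpha plus IFN-gamma mixture; protective hits raise ATP signal compared with cytokine alone wells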
cells [9] = format: functional, cell-based; remark: listed apart in the source
[10] = HEp-2 cell cytotoxicity, dose response, cytotoxicity control for RSV inhibitor project, HTS (AID 2410); format: functional; conditions: human respiratory syncytial virus
Large T antigen = Large T antigen (Simian virus 40, UniProt P03070); format: functional, Betapolyomavirus macacae;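 further: Confirmatory-stage PubChem screen for compounds that inhibit SV40 T antigen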
[11] = molecular target: T3, Polyadenylate-binding protein 1 (Homo sapiens, UniProt P11940); test: PABP1 MLLE–PAM2 binding inhibitor potency, dose response, biochemical, fluorescence polarization, FITC-PAM2 peptide (AID 602259); format: functional; conditions: read-out: IC50_Mean
[12] = molecular target: T3, Polyadenylate-binding protein 1; test: PABP1 MLLE–PAM2 interaction inhibitors, dose response, miRNA deadenylation inhibitor project, biochemical, fluorescence polarization, Cy5-PAM2 peptide, secondary (AID 602260); format: functional; conditions: read-out: IC50_Mean

T3 sequence (P11940 whole entry): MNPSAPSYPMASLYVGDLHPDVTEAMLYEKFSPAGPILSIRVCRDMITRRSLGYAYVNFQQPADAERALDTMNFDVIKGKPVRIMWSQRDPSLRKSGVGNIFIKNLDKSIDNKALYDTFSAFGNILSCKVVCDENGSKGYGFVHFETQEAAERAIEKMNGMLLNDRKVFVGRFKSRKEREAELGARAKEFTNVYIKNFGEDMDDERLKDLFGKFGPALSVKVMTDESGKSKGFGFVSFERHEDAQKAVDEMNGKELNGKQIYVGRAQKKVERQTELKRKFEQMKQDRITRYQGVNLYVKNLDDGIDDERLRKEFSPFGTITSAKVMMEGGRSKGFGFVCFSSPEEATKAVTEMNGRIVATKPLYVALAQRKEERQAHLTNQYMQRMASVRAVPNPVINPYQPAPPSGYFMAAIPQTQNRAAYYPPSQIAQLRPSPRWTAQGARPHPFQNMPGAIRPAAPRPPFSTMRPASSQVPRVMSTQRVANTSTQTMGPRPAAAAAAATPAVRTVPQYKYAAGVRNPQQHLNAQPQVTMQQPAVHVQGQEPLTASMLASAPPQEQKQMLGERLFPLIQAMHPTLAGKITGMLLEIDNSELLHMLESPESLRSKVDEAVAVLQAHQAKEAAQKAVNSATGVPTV
Sequence of Nonstructural protein 1 (Q194T2 whole entry): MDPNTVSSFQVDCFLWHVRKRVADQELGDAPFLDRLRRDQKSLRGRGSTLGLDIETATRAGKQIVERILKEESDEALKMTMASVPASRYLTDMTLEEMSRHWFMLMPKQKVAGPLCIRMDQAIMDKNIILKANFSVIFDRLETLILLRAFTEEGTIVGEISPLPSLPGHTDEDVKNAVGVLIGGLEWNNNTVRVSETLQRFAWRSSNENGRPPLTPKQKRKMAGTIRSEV
Sequence of Large T antigen (P03070 whole entry): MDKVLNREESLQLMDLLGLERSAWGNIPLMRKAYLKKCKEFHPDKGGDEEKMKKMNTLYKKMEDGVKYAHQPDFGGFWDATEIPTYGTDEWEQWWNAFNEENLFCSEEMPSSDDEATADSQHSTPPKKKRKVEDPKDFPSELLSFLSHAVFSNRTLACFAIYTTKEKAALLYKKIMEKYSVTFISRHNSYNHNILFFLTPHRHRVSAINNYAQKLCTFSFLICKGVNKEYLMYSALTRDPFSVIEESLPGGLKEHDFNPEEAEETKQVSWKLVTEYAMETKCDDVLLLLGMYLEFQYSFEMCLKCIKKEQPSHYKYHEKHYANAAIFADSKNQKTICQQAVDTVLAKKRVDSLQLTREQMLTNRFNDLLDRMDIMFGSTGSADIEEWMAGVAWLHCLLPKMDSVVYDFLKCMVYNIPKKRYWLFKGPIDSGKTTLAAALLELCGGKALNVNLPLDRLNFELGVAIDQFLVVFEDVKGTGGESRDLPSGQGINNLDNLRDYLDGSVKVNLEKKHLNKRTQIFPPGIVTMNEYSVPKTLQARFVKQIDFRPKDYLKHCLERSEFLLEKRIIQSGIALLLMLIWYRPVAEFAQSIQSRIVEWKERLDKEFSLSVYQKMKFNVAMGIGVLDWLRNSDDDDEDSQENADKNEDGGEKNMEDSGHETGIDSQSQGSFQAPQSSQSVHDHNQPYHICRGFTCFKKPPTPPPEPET

Q: Which results are given for N#Cc1ccc(/C=C/C(=O)c2ccco2)cc1?
A: EC50 [1]: 16.6 µM (active); EC50 [2]: 17.2 µM (active)

Q: With Cc1cccc(N/C=C/C(=C(C#N)C#N)N(C)C)c1 as the molecule, how does the IC50 [3] read?
A: 15.6 µM (not active)

Q: Which EC50 [4] does the source give for CCOC(=O)c1c(CSCc2ccccc2)oc2ccc(O)c(CN(C)C)c12 here?
A: > 195 µM (not active)

Q: And the AC50 [5]?
A: 22.2 µM (active)

Q: What about the AC50 [6] of the same molecule?
A: 10.7 µM (active)

Q: And the AC50 [7]?
A: 9.79 µM (active)

Q: Which IC50 (Prothrombin) does the source give for Cc1ccc(S(=O)(=O)CC(=O)Nc2c(C)n(C)n(-c3ccccc3)c2=O)cc1 here?
A: 3.58 µM (active)

Q: Which results are given for COc1cnc(-c2ccccn2)nc1N(C)C?
A: IC50 (Nonstructural protein 1): 1.92 µM (active); EC50 (cells [8]): 8.34 µM (active); AC50 (INS1): 8.4 µM (active); EC50 (cells [9]): 214 µM (active)

Q: With O=C1OC(Nc2ccc(F)c([N+](=O)[O-])c2)c2ccccc21 (configuration not stated) as the molecule, how does the IC50 (Prothrombin) read?
A: > 50 µM (not active)

Q: With CCCC(=O)n1nc(-c2ccco2)nc1N as the molecule, how does the IC50 (Prothrombin) read?
A: 1.28 µM (active)

Q: For COc1ccc(C(C)C)cc1S(=O)(=O)Nc1ccncc1, which IC50 (Prothrombin) is on record?
A: > 50 µM (not active)

Q: Which IC50 (Prothrombin) does the source give for CCC(=O)Nc1ccc(C(=O)CSc2nc3ccccc3cc2CC)cc1 here?
A: > 50 µM (not active)

Q: For Cn1nc(-c2ccc(Cl)cc2)c2cc(C(=O)N3CCN(c4ccccn4)CC3)sc21, which AC50 [5] is on record?
A: > 70 µM (inactive)

Q: What about the AC50 [6] of the same molecule?
A: 28.6 µM (active)

Q: What about the AC50 [7] of the same molecule?
A: 4.02 µM (active)

Q: What about the CC50 [10] of the same molecule?
A: 3.7 µM (active)

Q: Which IC50 (Prothrombin) does the source give for O=C(COC(=O)C12CC3CC(CC(O)(C3)C1)C2)NCCc1ccc(Cl)cc1 here?
A: > 50 µM (not active)

Q: With COc1ccc(-n2c(=O)c3c4c(sc3n3c(=S)[nH]nc23)CCC4)cc1 as the molecule, how does the IC50 (Large T antigen) read?
A: 20.4 µM (active)

Q: With CC(C)Cn1c(N)c(C(=O)COC(=O)c2ccc(F)cc2)c(=O)n(C)c1=O as the molecule, how does the IC50 [3] read?
A: 4.8 µM (not active)

Q: With CC(=O)c1ccc(NC(=O)c2noc(C(C)C)c2[N+](=O)[O-])cc1 as the molecule, how does the IC50 [3] read?
A: 3.66 µM (active)

Q: What does the source list for O=C1CC(c2ccccc2)Cc2nc(N3CCc4ccccc4C3)ncc21 (configuration not stated)?
A: IC50 [3]: 6.43 µM (not active); IC50 [11]: > 66 µM (inactive); IC50 [12]: > 66 µM (inactive)

Reference: ChEMBL document CHEMBL1201862, “PubChem BioAssay data set” (2004)
